Assay results reported in patent publication US20120309676A1, “Lantibiotic Salts” (priority 2010, published 2012).
Where a name gives a salt, the structure may show the parent alone.

Experiments:
Streptococcus pneumoniae = experiment: MIC susceptibility testing, S. pneumoniae (Brain-Heart-Infusion Broth); type: cell-based; conditions: S. pneumoniae R33
Description: (§1) Susceptibility testing with the exception of Streptococcus pneumoniae was performed by two-fold serial dilutions in Mueller Hinton Broth supplemented with 50 μg/mL Ca^2+. Susceptibility testing of S. pneumoniae was performed by two-fold serial dilutions in Brain-Heart-Infusion Broth supplemented with 50 μg/mL Ca^2+.
(§2) Modal values from up to 6 determinations

[1] = tested on: Vancomycin sensitive enterococci, E. faecium; experiment: MIC susceptibility testing, vancomycin sensitive enterococci (E. faecium); type: cell-based
Description: as §1, §2

[2] = tested on: Vancomycin sensitive enterococci, E. faecalis; experiment: MIC susceptibility testing, vancomycin sensitive enterococci (E. faecalis); type: cell-based
Description: as §1, §2

[3] = tested on: Vancomycin resistant enterococci, E. faecalis; experiment: MIC susceptibility testing, vancomycin resistant enterococci (E. faecalis); type: cell-based
Description: as §1, §2

[4] = tested on: Staphylococcus aureus methicillin resistant ATCC 33591; experiment: Mouse bacteraemia model, SC dosing; type: in vivo
Description: Groups of 6 male CD-1 (Crl.) derived mice weighing 24±2 g were used. Mice were inoculated intraperitoneally (IP) with an LD90-100 of Staphylococcus aureus methicillin resistant ATCC 33591 (1.1×10^7 CFU/mouse) in 0.5 mL of BHI broth containing 5% mucin. Example 1 and vancomycin were dissolved in 15% HPbetaCD/4.4% glucose/0.5 mM KH2PO4, pH 5.0 and doses of 1, 3, 5, 10 and 20 mg/Kg were administered subcutaneously (SC) to test animals at 0, 2 and 24 hour(s) after bacteria challenge. The dosing volume was 5 mL/Kg. Mortality was recorded once daily for 7 days (FIG. 1). The ED50 for each compound was determined by nonlinear regression.

[5] = tested on: Staphylococcus aureus methicillin resistant ATCC 33591; experiment: Mouse bacteraemia model, second experiment, IV dosing; type: in vivo; conditions: for number of deaths: after 7 days, groups of 6 mice
Description: In a second experiment Groups of 6 male CD-1 (Crl.) derived mice weighing 24±2 g were used. Mice were inoculated intraperitoneally (IP) with an LD90-100 of Staphylococcus aureus methicillin resistant ATCC 33591 (1.35×10^8 CFU/mouse) in 0.5 mL of BHI broth containing 5% mucin. Example 1 was dissolved in 5% dextrose/1.5 mM potassium phosphate, pH 5.0 and doses of 1, 3, 5 and 10 mg/Kg were administered intravenously (IV) to test animals at 1 and 13 hour(s) after bacteria challenge. The dosing volume was 5 mL/Kg. Mortality was recorded once daily for 7 days.

[6] = tested on: Methicillin-resistant Staph. epidermidis; experiment: MIC susceptibility testing, methicillin-resistant Staph. epidermidis; type: cell-based, S. epidermidis
Description: as §1, §2

MRSA = experiment: MIC susceptibility testing, MRSA; type: cell-based, Staphylococcus aureus
Description: as §1, §2

[7] = tested on: Methicillin Resistant Staphylococcus aureus (MRSA, ATCC 33591); experiment: Neutropaenic mouse thigh infection model; type: in vivo
Description: In vivo efficacy of compounds of the present invention in the treatment of bacterial tissue infections was evaluated using a neutropaenic mouse thigh model.
Groups of 6 male ICR mice weighing 24±2 g were used. Test animals were immunosuppressed by 2 intraperitoneal injections of cyclophosphamide, the first at 150 mg/Kg 4 days before infection (day-4) and the second at 100 mg/Kg 1 day before infection (day-1). On day 0, individual animals were inoculated intramuscularly (IM) into the right thigh of test animals with 1.15×10^8 CFU/mouse of Methicillin Resistant Staphylococcus aureus (MRSA, ATCC 33591) suspended in 100 μL of sterile PBS, pH 7.4. Vehicle and test substances were administered intravenously (IV) at a dose volume of 6 mL/Kg, 2 and 14 hours after thigh infection. Example 1 and vancomycin were dissolved in 15% hydroxypropyl-β-cyclodextrin/4.4% glucose/1.5 mM potassium phosphate buffer, pH 7.0 and administered at doses of 5, 10, 20, 30 and 40 mg/Kg. At 26 hours after inoculation, muscle of the right thigh of each test mouse was harvested. From an additional group with no treatment, muscle of the right thigh was harvested at 2 hours after inoculation for the basal CFU determination. The removed muscle tissues were then homogenized in 3-4 mL of PBS, pH 7.4 with a ceramic mortar. Homogenates of 0.1 mL were used for serial 10-fold dilutions and plated on Mueller Hinton broth in 1.5% Bacto agar for CFU determination. […] Results (mean cfu/g) are graphically represented in FIG. 2.

[8] = tested on: Vancomycin-intermediate Staphylococcus aureus; experiment: MIC susceptibility testing, vancomycin-intermediate Staphylococcus aureus; type: cell-based
Description: as §1, §2

In the case of `CC[C@H](C)[C@@H]1NC(=O)[C@@H]2NC(=O)[C@H](CC(C)C)NC(=O)[C@H](NC(=O)[C@@H]3CSC[C@@H](N)C(=O)N[C@@H](CO)C(=O)NCC(=O)N[C@@H](Cc4c[nH]c5ccccc45)C(=O)N[C@@H](C(C)C)C(=O)N3)[C@H](C)SC[C@H](NC(=O)[C@H](CCC(=O)O)NC1=O)C(=O)NCC(=O)N[C@H]1C(=O)N[C@@H](CC(C)C)C(=O)N[C@@H](C(C)C)C(=O)N[C@@H](CS[C@H]2C)C(=O)N[C@@H](C)C(=O)N[C@H](C(=O)NCc2cc(Cl)cc(Cl)c2)CS[C@H]1C` [Example 1, Deoxyactagardine B (3,5-dichlorobenzylamine) monocarboxamide N-methyl glucamine salt], the MIC (Streptococcus pneumoniae) is reported as under 16 µg/mL, the MIC ([1]; E. faecium 19579) is reported as 4 µg/mL and the MIC ([1]; E. faecium 7754422) is reported as under 8 µg/mL. It also gave an MIC ([1]; E. faecium 7865229) of 16 µg/mL, an MIC ([2]; E. faecalis 7757400) of under 4 µg/mL and an MIC ([2]; E. faecalis 7791220) of under 16 µg/mL. For the same compound, the MIC ([2]; E. faecalis GRL05022) was under 8 µg/mL, the MIC ([2]; E. faecalis GRL05023) was 4 µg/mL and the MIC ([2]; E. faecalis GRL05024) was under 8 µg/mL. It also gave an MIC ([2]; E. faecalis GRL05026) of 8 µg/mL, an MIC ([2]; E. faecalis GRL05027) of 4 to 8 µg/mL and an MIC ([2]; E. faecalis GRL05029) of 4 µg/mL. It also gave an MIC ([2]; E. faecalis GRL05030) of under 8 µg/mL, an MIC ([3]; E. faecalis 9758512) of 8 µg/mL and an MIC ([3]; E. faecalis GRL05031) of 2 to 4 µg/mL. The MIC ([3]; E. faecalis GRL05032) was 8 µg/mL, the MIC ([3]; E. faecalis GRL05033) was 8 µg/mL and the MIC ([3]; E. faecalis GRL05034) was 4 µg/mL. The MIC ([3]; E. faecalis GRL05035) was 8 µg/mL, the survival rate ([4]; 3 mg/Kg) was 100% and the “antimicrobial effect against S. aureus (MRSA) in mice” value ([4]; 3, 5, 10 and 20 mg/Kg×3, SC) was “significant antimicrobial effect”. The “increase in survival rate” value ([4]; 3, 5, 10 and 20 mg/Kg×3, SC) was “at least 50%”, the “estimated ED50” value ([4]; CD-1 mice, SC at 0, 2 and 24 h after challenge, mortality over 7 days, nonlinear regression) was 1.07 mg/kg and the number of deaths ([5]; 1 mg/kg IV at 1 and 13 h after challenge) was 5. The number of deaths ([5]; 3 mg/kg IV at 1 and 13 h after challenge) was 4, the number of deaths ([5]; 5 mg/kg IV at 1 and 13 h after challenge) was 1 and the number of deaths ([5]; 10 mg/kg IV at 1 and 13 h after challenge) was 1. The “survival of mice after 7 days” value ([5]; 1, 3, 5 and 10 mg/kg) was “dose-dependent incease in survival”, the MIC ([6]; S. epidermidis 7753921) was 8 to 16 µg/mL and the MIC ([6]; S. epidermidis 7755298) was 8 µg/mL. For the same compound, the MIC ([6]; S. epidermidis 7765349) was 4 µg/mL, the MIC ([6]; S. epidermidis 7864847) was under 16 µg/mL and the MIC ([6]; S. epidermidis 7865688) was 16 µg/mL. The MIC ([6]; S. epidermidis GRL05011) was 16 µg/mL, the MIC ([6]; S. epidermidis GRL05012) was 8 µg/mL and the MIC ([6]; S. epidermidis GRL05013) was 8 to 16 µg/mL. For the same compound, the MIC ([6]; S. epidermidis GRL05014) was 8 to 16 µg/mL, the MIC ([6]; S. epidermidis GRL05015) was 8 to 16 µg/mL and the MIC ([6]; S. epidermidis GRL05016) was 4 to 8 µg/mL. The MIC ([6]; S. epidermidis GRL05017) was 16 µg/mL, the MIC ([6]; S. epidermidis GRL05019) was 16 µg/mL and the MIC ([6]; S. epidermidis GRL05020) was 4 µg/mL. For the same compound, the MIC (MRSA; S. aureus 12232) was 4 µg/mL, the MIC (MRSA; S. aureus R31) was 4 µg/mL and the MIC (MRSA; S. aureus R33) was 4 µg/mL. It also gave an MIC (MRSA; S. aureus R34) of 4 µg/mL, an MIC (MRSA; S. aureus R36) of 4 µg/mL and an MIC (MRSA; S. aureus R37) of 4 µg/mL. It also gave an MIC (MRSA; S. aureus R39) of 4 to 8 µg/mL, an MIC (MRSA; S. aureus R40) of 4 to 8 µg/mL and an MIC (MRSA; S. aureus W71) of 8 µg/mL. For the same compound, the MIC (MRSA; S. aureus W74) was 4 µg/mL, the MIC (MRSA; S. aureus W82) was 4 to 8 µg/mL and the MIC (MRSA; S. aureus W96) was 4 to 8 µg/mL. It also gave an MIC (MRSA; S. aureus W97) of 4 µg/mL, an MIC (MRSA; S. aureus W98) of 4 to 8 µg/mL and an MIC (MRSA; S. aureus W99) of 4 to 8 µg/mL. The antimicrobial effect ([7]; IV at 5, 10, 20, 30 and 40 mg/Kg×2, 2 and 14 h after thigh infection, harvest at 26 h) was “significant antimicrobial effect”, the “reduction in CFU/g” value ([7]; at 10 mg/kg and above, IV ×2, thigh muscle at 26 h) was over 1000 fold and the MIC ([8]; S. aureus 2) was 4 µg/mL. The MIC ([8]; S. aureus 26) was 4 µg/mL, the MIC ([8]; S. aureus MI) was 16 µg/mL and the MIC ([8]; S. aureus Mu3) was 8 µg/mL. For the same compound, the MIC ([8]; S. aureus Mu50) was 4 µg/mL, the MIC ([8]; S. aureus NJ) was 8 µg/mL and the MIC ([8]; S. aureus V99) was 4 µg/mL.
